Drawing on ChEMBL document CHEMBL4819153, “l-Hypaphorine and d-hypaphorine: Specific antiacetylcholinesterase activity in rat brain tissue” (Bioorg Med Chem Lett, 2021), this text covers IC50, Activity and solubility for four compounds.

Structures are written as SMILES. pIC50: −log10 of the molar value. A value given as a limit tells only on which side of the number the result lay.

Data set [1] concerns the target T1, Acetylcholinesterase (Rattus norvegicus, UniProt P37136).
T1 sequence (P37136 whole entry): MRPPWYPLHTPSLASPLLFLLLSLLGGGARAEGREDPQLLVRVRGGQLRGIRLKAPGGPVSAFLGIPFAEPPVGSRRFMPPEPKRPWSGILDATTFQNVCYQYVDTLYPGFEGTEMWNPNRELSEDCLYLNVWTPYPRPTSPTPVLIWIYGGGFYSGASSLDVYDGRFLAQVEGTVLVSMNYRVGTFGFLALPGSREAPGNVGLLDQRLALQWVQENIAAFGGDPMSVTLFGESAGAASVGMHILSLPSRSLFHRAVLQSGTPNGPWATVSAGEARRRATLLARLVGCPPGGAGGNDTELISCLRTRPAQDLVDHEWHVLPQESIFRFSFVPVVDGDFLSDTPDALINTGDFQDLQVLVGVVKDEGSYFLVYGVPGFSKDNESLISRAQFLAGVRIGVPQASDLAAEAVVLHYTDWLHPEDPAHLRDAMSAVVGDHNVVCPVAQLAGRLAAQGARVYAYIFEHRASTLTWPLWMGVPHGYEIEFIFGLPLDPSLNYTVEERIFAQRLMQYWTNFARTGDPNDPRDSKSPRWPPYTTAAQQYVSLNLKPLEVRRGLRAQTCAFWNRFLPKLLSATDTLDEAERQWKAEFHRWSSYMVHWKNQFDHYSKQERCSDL
The data set is described as follows: Inhibition of AChE in rat brain cortex. Type of data set: tissue-based.

Data set [2] addresses T1, Acetylcholinesterase. The experiment in a line: Inhibition of AChE in rat brain Cerebellum. Type of data set: tissue-based.
The target of data set [3] is T1, Acetylcholinesterase. The data set is described as follows: Inhibition of AChE in rat brain Striatum. The class given is tissue-based.
The target in data set [4] is T1, Acetylcholinesterase. The data set is described as follows: Inhibition of AChE in rat brain Hippocampus. Type of data set: tissue-based.
For data set [5], the system named is HaCaT. The data set is described as follows: Cytotoxicity against human HaCaT cells assessed as reduction in cell viability at 10000 uM incubated for 24 hrs relative to control. The class given is cell-based.
Data set [6] concerns HaCaT. The experiment in a line: Cytotoxicity against human HaCaT cells assessed as reduction in cell viability at 5000 to 10000 uM incubated for 48 hrs relative to control. The class given is cell-based. The settings on record: dose 5000-10000 µM.
Data set [7] can be described thus: Solubility in water. The settings on record: buffer. Type of data set: physicochemical.
For data set [8], the system named is HaCaT. The experiment in a line: Cytotoxicity against human HaCaT cells assessed as reduction in cell viability upto 10000 uM incubated for 24 hrs relative to control. Type of data set: cell-based.
The subject of data set [9] is HaCaT. The data set is described as follows: Cytotoxicity against human HaCaT cells assessed as reduction in cell viability upto 10000 uM incubated for 48 hrs relative to control. The class given is cell-based.
The subject of data set [10] is HaCaT. The experiment in a line: Cytotoxicity against human HaCaT cells assessed as reduction in cell viability incubated for 24 hrs relative to control. The class given is cell-based.
Data set [11] relates to HaCaT. The experiment in a line: Cytotoxicity against human HaCaT cells assessed as reduction in cell viability incubated for 48 hrs relative to control. Type of data set: cell-based.

As for `CN(C)C(=O)Oc1cccc([N+](C)(C)C)c1.[Br-]` [NEOSTIGMINE BROMIDE], the pIC50 (in general, the negative decadic logarithm of the IC50, by convention in mol/L) on Acetylcholinesterase [1] is 6.19; on Acetylcholinesterase [2], 4.43; against Acetylcholinesterase [3], 5.50; against Acetylcholinesterase [4], 7.15. The Activity result in the data set with HaCaT [5] and with HaCaT [6] was “Toxic” throughout.
Take `C[N+](C)(C)[C@@H](Cc1c[nH]c2ccccc12)C(=O)O.[Cl-]`: the pIC50 is < 3.00 at Acetylcholinesterase [1], 4.73 against Acetylcholinesterase [2], < 3.00 against Acetylcholinesterase [3] and < 3.00 against Acetylcholinesterase [4]. In addition, in data set [7], the solubility result is “Soluble”. Besides, the Activity result with HaCaT [8] and in the data set on HaCaT [9] was “Non-Toxic” each time.
Consider `C[N+](C)(C)[C@H](Cc1c[nH]c2ccccc12)C(=O)O.[Cl-]`, for which the pIC50 against Acetylcholinesterase [1] is 6.62; against Acetylcholinesterase [2], 4.72; against Acetylcholinesterase [3], 4.46; against Acetylcholinesterase [4], 6.49. Further, in data set [7], the solubility result is “Soluble”. The Activity result with HaCaT [8] and with HaCaT [9] was “Non-Toxic” each time.
In the case of `CN(C)/N=N/c1[nH]cnc1C(N)=O` [DACARBAZINE], the Activity with HaCaT [10] came to 29.74%; in the data set on HaCaT [11] it was 44.46%.
